From article PMC7464304, “Multiple-Reaction Monitoring Tandem Mass Method for Determination of Phenolics and Water-Soluble Vitamins in Eccoilopus formosanus” (Molecules, 2020)
Each block holds one compound with its values, some of them ahead of it.

Experiment: DPPH radical scavenging activity
Conditions: 0.1 mM DPPH, 30 min in the dark at room temperature, absorbance 517 nm; mean ± SD (n = 3)
Method: The reaction mixture was left in the dark at room temperature for 30 min. […] The percentage of scavenging activity against the DPPH radical was calculated by the following equation:Radical scavenging activity (%) = (Abs control − Abs sample)/Abs control × 100% where Abs control is the absorbance of the DPPH radical in methanol; Abs sample is the absorbance of the DPPH radical solution mixed with the sample extract. […] All determinations were performed in triplicate.

SMILES: COc1cc(/C=C/C(=O)O)ccc1O [Ferulic acid, ferulic acid]
DPPH Radical Scavenging Activity, IC50 Value: 45.2 ± 0.3 µg/mL

SMILES: Cc1ncc(C[n+]2csc(CCO)c2C)c(N)n1 [Thiamine, thiamine]
DPPH Radical Scavenging Activity, IC50 Value: >500 µg/mL

Further lines, results first:

DPPH Radical Scavenging Activity, IC50 Value: 21.1 ± 0.3 µg/mL
SMILES: O=C(O)c1cc(O)c(O)c(O)c1 [Gallic acid, gallic acid]

DPPH Radical Scavenging Activity, IC50 Value: 31.6 ± 0.9 µg/mL
SMILES: O=c1cc(-c2ccc(O)cc2)oc2cc(O)cc(O)c12 [Apigenin, apigenin]

DPPH Radical Scavenging Activity, IC50 Value: 25.3 ± 0.3 µg/mL
SMILES: O=C(O)/C=C/c1ccc(O)c(O)c1 [Caffeic acid, caffeic acid]
